From patent US8703106B2, “Chlorine dioxide treatment for biological tissue” (priority 2009, dated 2014)

Columns and labels:
Assay in all cases: Pig infected wound model, delivery methods (Example 4)
Assay type in all cases: in vivo
Pseudomonas in wounds = details: Day 2, 400 ppm chlorine dioxide over two hours, versus moist controls
Text: (§1) The test animal was a pig (n=1). Pigs are commonly used as models for wound healing in part because pig skin shares many characteristics with human skin. The porcine model is considered to be an excellent tool for the evaluation of candidate agents intended for use in human wounds.
(§2) On Day 0, the pig was anesthetized and sixteen […] full-thickness wounds (eight per side) were created using a custom designed 2-cm trephine. Each wound was 2-cm in diameter. An epinephrine solution (1:10,000 dilution) was applied to the wounds on gauze sponges until hemostasis was complete (approximately 10 minutes). Each wound was then infected with a bacterial inoculum.
(§3) Three different bacteria, Pseudomonas aeruginosa, Fusobacterium sp., and coagulase-negative Staphylococci (CNS), were cultured and used to prepare inoculums for the wounds. On the morning of surgery, the bacterial cultures were washed with sterile saline and resuspended in saline to a final density of approximately 10^7 CFU/mL. This bacterial suspension was used to inoculate each wound.
(§4) Wounds were dressed with sterile Telfa gauze, and the infections allowed to mature to establish a bacterial biofilm condition. Telfa dressings were moistened with saline: the excess saline was removed by squeezing the Telfa dressings. The dressing was then secured in place with Transpore tape (3M, St. Paul, Minn.), As a secondary dressing, a blue absorbent pad was used to cover all of the wounds. The absorbent layer of the blue pad was placed against the skin for the first few days. If wounds looked too dry, the blue pad was changed with the occlusive side against the skin. A layer of a layer of elastic bandage was wrapped over the blue pad to prevent movement of the dressings underneath. All wound dressing were changed on Day 1.
(§5) On Day 2, wounds were treated with a chlorine dioxide composition using different delivery methods. In brief, wounds A2-A4 were treated with continuous irrigation. Treatment for wounds B2-B4 and C2-C4 was multiple, substantially contiguous episodes of contact with a substantially non-cytotoxic chlorine dioxide gel composition. Wounds D2-D4 were treated with intermittent irrigation using a manual irrigation device. A1, B1 and D1 were controls and were not treated with chlorine dioxide. C1 was manually treated with a chlorine dioxide solution.
(§6) Wounds A2-A4: Each wound was individually covered with an irrigation device, each having an inlet, port to supply a chlorine dioxide solution and an outlet port for egress of the chlorine, dioxide solution. […]
(§7) The pump was activated to achieve an initial flow rate of approximately 80-82 ml mm through each of the three irrigation chambers. Chlorine dioxide concentrations were measured at the outlets using a UV spectrophotometer. […]

[1] = test system: coagulase-negative Staphylococci in wounds
Text: as §1, §2, §3, §4, §5, §6, §7

total bacteria in wounds = details: Day 2, 400 ppm chlorine dioxide over two hours, versus moist controls
Text: as §1, §2, §3, §4, §5, §6, §7

Structure (SMILES): [O][Cl+][O-] [ClO2, chlorine dioxide]
- reduction of Pseudomonas (Pseudomonas in wounds): ≥ 3 logs
- levels of Staphylococcus aureus ([1]; pig wounds, improved irrigation methods and gel formulation): moderately lowered
- reduction of coagulase-negative Staph ([1]; pig, Day 2, 400 ppm chlorine dioxide over two hours, versus moist controls): 1-2 logs
- total bacteria reduction (total bacteria in wounds): 1-2 logs
